Key:
Experiment in all cases: relative viability (nuclei count vs DMSO), 5 days (fraction); higher = more cells survive
Salubrinal + Luminespib = compound: O=C(/C=C/c1ccccc1)NC(NC(=S)Nc1cccc2cccnc12)C(Cl)(Cl)Cl [Salubrinal] + CCNC(=O)c1noc(-c2cc(C(C)C)c(O)cc2O)c1-c1ccc(CN2CCOCC2)cc1 [Luminespib] (partner 0.01 µM)
Outline: (§1)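 The day after seeding in 1536-well plates, lung cancer cell lines were treated by pin tool with a single drug, or with a fixed anchor-drug dose together with five library-drug doses (not always all listed) in √10 steps. After 5 days, a combined fix-and-stain solution (final 0.05% Triton X-100, 1% formaldehyde, 1 ug/ml Hoechst) was added. Nuclei counted on 4× images gave relative viability as treated counts over vehicle counts, reported as the median of duplicate plates.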

[1] = compound: Cc1ccc2nc(NCCN)c3ncc(C)n3c2c1 + N=C(N)NC(=N)NCCc1ccccc1 [Phenformin] (partner 250 µM)
Outline: as §1

[2] = compound: Cc1ccc2nc(NCCN)c3ncc(C)n3c2c1 + C[C@]1(O)C[C@@H](c2nc(-c3ccc4ccc(-c5ccccc5)nc4c3)c3c(N)nccn32)C1 [Linsitinib] (partner 1 µM)
Outline: as §1

[3] = compound: Cc1ccc2nc(NCCN)c3ncc(C)n3c2c1 + COc1cccc2cc(-c3nc([C@H]4CC[C@H](C(=O)O)CC4)n4ncnc(N)c34)[nH]c12 [OSI-027] (partner 0.5 µM)
Outline: as §1

Row | Cell Line | relative viability (Salubrinal + Luminespib; first compound 0.08 µM) | relative viability (Salubrinal + Luminespib; first compound 0.253 µM) | relative viability (Salubrinal + Luminespib; first compound 0.8 µM) | relative viability (Salubrinal + Luminespib; first compound 2.53 µM) | relative viability (Salubrinal + Luminespib; first compound 8 µM) | relative viability ([1]; first compound 0.04 µM) | relative viability ([1]; first compound 0.1265 µM) | relative viability ([1]; first compound 0.4 µM) | relative viability ([1]; first compound 1.265 µM) | relative viability ([1]; first compound 4 µM) | relative viability ([2]; first compound 0.04 µM) | relative viability ([2]; first compound 0.1265 µM) | relative viability ([2]; first compound 0.4 µM) | relative viability ([2]; first compound 1.265 µM) | relative viability ([2]; first compound 4 µM) | relative viability ([3]; first compound 0.04 µM) | relative viability ([3]; first compound 0.1265 µM) | relative viability ([3]; first compound 0.4 µM) | relative viability ([3]; first compound 1.265 µM) | relative viability ([3]; first compound 4 µM)
1 | HCC-44 | 1.32 | 1.08 | 1.09 | 1.02 | 0.894 | 0.186 | 0.247 | 0.157 | 0.184 | 0.146 | 0.869 | 0.632 | 0.652 | 0.625 | 0.69 | 0.49 | 0.451 | 0.448 | 0.631 | 0.384
2 | HCC-827 | 0.694 | 0.411 | 0.425 | 0.739 | 0.551 | 0.409 | 0.402 | 0.401 | 0.39 | 0.384 | 0.932 | 0.936 | 0.91 | 0.946 | 0.938 | 0.802 | 0.779 | 0.873 | 0.841 | 0.736
3 | NCI-H2342 | 0.779 | 0.662 | 0.714 | 0.601 | 0.799 | 0.592 | 0.816 | 0.636 | 0.581 | 0.559 | – | – | – | – | – | 0.659 | 0.607 | 0.767 | 0.551 | 0.595
4 | NCI-H2347 | 0.786 | 0.63 | 0.381 | 0.512 | 0.403 | 0.521 | 0.55 | 0.513 | 0.345 | 0.417 | 0.963 | 1 | 0.944 | 0.829 | 0.893 | 0.373 | 0.503 | 0.386 | 0.425 | 0.223
5 | PC-14 | 0.23 | 0.118 | 0.134 | 0.151 | 0.126 | 0.535 | 0.69 | 0.431 | 0.607 | 0.254 | 0.962 | 0.957 | 0.947 | 0.964 | 0.9 | 0.882 | 0.819 | 0.979 | 0.759 | 0.388
6 | NCI-H1651 | 0.99 | 0.897 | 0.962 | 0.743 | 0.827 | 0.351 | 0.273 | 0.315 | 0.358 | 0.352 | 0.982 | 0.837 | 0.982 | 0.928 | 0.795 | 0.787 | 0.708 | 0.681 | 0.613 | 0.604
7 | HARA | 0.848 | 0.688 | 1.08 | 0.487 | 0.496 | 0.437 | 0.449 | 0.388 | 0.342 | 0.453 | 1.01 | 0.933 | 0.885 | 0.791 | 0.927 | 0.488 | 0.505 | 0.233 | 0.459 | 0.553
8 | NCI-H1650 | 0.212 | 0.213 | 0.194 | 0.19 | 0.216 | 0.442 | 0.488 | 0.455 | 0.414 | 0.464 | – | – | – | – | – | 0.784 | 0.563 | 0.53 | 0.548 | 0.438
9 | NCI-H1395 | 0.761 | 0.701 | 0.774 | 0.729 | 0.644 | 0.45 | 0.498 | 0.412 | 0.419 | 0.46 | 1 | 0.955 | 1.02 | 1.07 | 0.955 | 0.672 | 0.67 | 0.558 | 0.767 | 0.655
10 | LU99A | 0.234 | 0.264 | 0.293 | 0.243 | 0.248 | 0.797 | 0.78 | 0.673 | 0.892 | 0.798 | 0.568 | 0.524 | 0.526 | 0.561 | 0.522 | 0.34 | 0.268 | 0.283 | 0.273 | 0.298
11 | NCI-H1355 | 0.801 | 0.744 | 0.555 | 0.72 | 0.705 | 0.484 | 0.476 | 0.441 | 0.391 | 0.42 | 0.811 | 0.825 | 0.814 | 0.771 | 0.719 | 0.447 | 0.447 | 0.335 | 0.384 | 0.404
12 | HCC-78 | – | – | – | – | – | 0.81 | 0.694 | 0.71 | 0.697 | 0.601 | 0.539 | 0.537 | 0.496 | 0.491 | 0.448 | 0.417 | 0.421 | 0.371 | 0.341 | 0.337
13 | NCI-H1563 | 0.572 | 0.501 | 0.521 | 0.488 | 0.506 | 0.652 | 0.684 | 0.662 | 0.65 | 0.654 | 1.31 | 1.02 | 1.1 | 1.39 | 1.21 | 0.78 | 0.769 | 0.768 | 0.796 | 0.728
14 | HCC-15 | 0.363 | 0.294 | 0.245 | 0.468 | 0.206 | 0.464 | 0.501 | 0.48 | 0.429 | 0.379 | 0.886 | 0.833 | 0.855 | 0.805 | 0.905 | 0.708 | 0.807 | 0.544 | 0.659 | 0.581
15 | EKVX | 0.902 | 0.969 | 0.839 | 0.86 | 0.891 | 0.25 | 0.236 | 0.241 | 0.239 | 0.248 | 1.04 | 0.972 | 0.962 | 0.865 | 0.805 | 0.754 | 0.688 | 0.658 | 0.71 | 0.617
16 | NCI-H2087 | 0.151 | 0.164 | 0.16 | 0.187 | 0.183 | 0.464 | 0.491 | 0.423 | 0.482 | 0.477 | 1.03 | 0.963 | 0.789 | 0.992 | 0.877 | 0.648 | 0.595 | 0.478 | 0.703 | 0.501
17 | LK-2 | 0.219 | 0.183 | 0.214 | 0.211 | 0.166 | 0.358 | 0.559 | 0.307 | 0.325 | 0.415 | 0.561 | 0.439 | 0.531 | 0.194 | 0.37 | 0.173 | 0.202 | 0.182 | 0.188 | 0.18
